Several values for one entry are separate records, joined by “and”; a condition that tells them apart may be missing. Identical values can stand only once.
System: Salmonella typhimurium TA98
Experiment: Ames test, strain TA98 (reading frame shift)
Format: cell-based
Settings: positive control at 2 µg/mL
Method: The aim of the study was to assess the mutagenic potential of three extracts obtained from stem cells using two strains of Salmonella typhimurium carrying two types of mutations: TA 98-reading frame shift and TA 100-base pair substitution.
The experimental procedure was carried out basing on the manufacturer's experimental protocol (Xenometrix).

O=[N+]([O-])c1ccc2c(c1)Cc1ccccc1-2 [Extract 2-NF, 2-nitrofluorene]
MOI (Multiplicity of induction compared to baseline): 6.9 and 5.6

From EP4389106A1, “METHOD OF PREPARATION OF LIPOSOMAL C[…] […] AND LIPOSOMAL C[…] […]” (Aero-Bw K. Domagala Sp. Jawna, priority 2022, dated 2024)
